ChEMBL document CHEMBL1140370, “Molecular modeling and molecular dynamics simulation of the human A2B adenosine receptor. The study of the possible binding modes of the A2B receptor antagonists” (J Med Chem, 2005)

Target: T1, Adenosine receptor A2b (Homo sapiens, UniProt P29275)
T1 sequence (P29275 whole entry): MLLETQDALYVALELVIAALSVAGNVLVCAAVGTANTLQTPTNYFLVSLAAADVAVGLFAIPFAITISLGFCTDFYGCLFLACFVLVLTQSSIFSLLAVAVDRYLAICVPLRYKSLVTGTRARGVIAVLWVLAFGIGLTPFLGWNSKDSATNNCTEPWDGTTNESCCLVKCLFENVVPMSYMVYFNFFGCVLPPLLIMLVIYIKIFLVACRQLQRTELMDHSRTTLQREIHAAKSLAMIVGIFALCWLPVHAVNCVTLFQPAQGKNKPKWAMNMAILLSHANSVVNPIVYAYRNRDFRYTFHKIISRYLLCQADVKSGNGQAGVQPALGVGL
Experiment: Antagonist activity against human Adenosine A2b receptor
Type: functional

| Ki [nM] | SMILES |
| --- | --- |
| 18 | CCCn1c(=O)c2[nH]c(-c3cc(OCC(=O)O)no3)nc2n(CCC)c1=O |
| 4.8 | CCCn1c(=O)c2[nH]c(-c3ccc(OCC(=O)Nc4ccc(F)cc4)nc3)nc2n(CCC)c1=O |
